Reference: patent publication US20050256179A1, “Selective pharmacologic inhibition of protein trafficking and related methods of treating human diseases” (priority 2003, published 2005)
Converted amounts (≈) assume the structure as drawn. Where two headings read alike, the source gives them in different places.

Legend:
Assay type in all cases: cell-based
HCC 1806 = assay: Inhibition of tumor cell proliferation in vitro (SRB total protein); details: Homo sapiens, HCC1806, 72 h, in-house head-to-head, about 72 hours, read-out: IC50
Procedure: (§1) For a typical screening experiment, cells are inoculated into 96 well microtiter plates in 100 μl at plating densities ranging from 5,000 to 40,000 cells/well depending on the doubling time of individual cell lines. After cell inoculation, the microtiter plates are incubated at 37° C., 5% or 10% CO2—depending on the cell line and media—95% air and 100% relative humidity for 24 h prior to addition of experimental drugs. After 24 h, two plates of each cell line are fixed in situ with TCA, to represent a measurement of the cell population for each cell line at the time of drug addition. Following drug addition, the plates are incubated for an additional 48 h at 37° C., 5%/10% CO2, 95% air, and 100% relative humidity. For adherent cells, the assay is terminated by the addition of cold TCA. Cells are fixed in situ by the gentle addition of 50 μl of cold 50% (w/v) TCA (final concentration, 10% TCA) and incubated for 60 minutes at 4° C. The supernatant is discarded, and the plates are washed five times with tap water and air-dried. Sulforhodamine B (SRB) solution (10011) at 0.4% (w/v) in 1% acetic acid is added to each well, and plates are incubated for 10 minutes at room temperature. After staining, unbound dye is removed by washing five times with 1% acetic acid and the plates are air-dried. Bound stain is subsequently solubilized with 10 mM trizma base, and the absorbance is read on an automated plate reader at a wavelength of 515 nm. For suspension cells, the methodology is the same except that the assay is terminated by fixing settled cells at the bottom of the wells by gently adding 50 μl of 80% TCA (final concentration, 16% TCA). Using the seven absorbance measurements [time zero, control growth, and test growth in the presence of drug at the five concentration levels], the percentage growth is calculated at each of the drug concentrations levels.
(§2) Brefeldin A was tested by the NCI for inhibition of tumor cell proliferation in the 60-cell screen. The NCI 60-cell screen was performed essentially as described for FIG. 9. Data available from the NCI database for Brefeldin A was compared with more recent AVP 893 data. […] Several tumor cell lines were cultured in the presence of either AVP 893 or Brefeldin A for about 72 hours before assessing proliferation response by measuring total protein (SRB), as described for FIG. 9. The results of the head-to-head comparisons performed in-house also show substantial variation in the relative proliferative responses of cells to Brefeldin A and AVP 893 in vitro (TABLE 3).

Hs578T = assay: as above; details: Homo sapiens, Hs-578T
Procedure: as §1, §2

MOLT-4 = assay: as above; details: Homo sapiens
Procedure: as §1, §2

NCI H-460 = assay: as above; details: Homo sapiens
Procedure: as §1, §2

OVCAR3 = assay: as above; details: Homo sapiens
Procedure: as §1, §2

SW480 = assay: as above; details: Homo sapiens, column Avanir, read-out: IC50 (ng/ml), Avanir
Procedure: as §1, §2

mouse spleen cells = assay: Proliferation of IL-4/anti-CD40 Ab-stimulated mouse spleen cells; details: read-out: anti-proliferative potency
Procedure: BALB/c spleen cells were cultured for 20 hours in the presence of stimulus+/−AVP 893 (100 ng/ml) and harvested and prepared as described in FIG. 17. Stimulus conditions include: LPS (10 μg/ml), IL-4 (10 ng/ml) plus anti-CD40 Ab (100 ng/ml), PMA (10 ng/ml) plus ionomycin (100 nM), or Con A (5 μg/ml). […] This experiment was carried out as described for FIG. 21, except that different AVP compounds with high (AVP 893, 5 nM), medium (AVP 26297, 50 nM), and low (AVP 25630, 500 nM) anti-proliferative potency were tested and compared. AVP 893 was tested at 1, 10, and 100 ng/ml; AVP 26297 was tested at 1, 10, 100, and 1000 ng/ml; AVP 25630 was tested at 10, 100, and 1000 ng/ml.

HSV-2 = assay: Spread of HSV-2 in infected cultures (glycoprotein E labeling); details: 300 ng/ml applied 16 hr prior to virus inoculation
Procedure: The effect of AVP 893 on the spread of viral infection was further investigated. AVP 893 (at 300 ng/ml) was applied 16 hr prior to virus inoculation. Time points shown in FIG. 45 represent the hours after virus inoculation. […] In addition to the immunocytochemistry work shown in FIG. 45, extensive in vitro plaque assays were performed on HSV-1 and -2, as well as other families of virus that use the golgi in their life cycle (see Table 2).
We determined whether viral particles (as visualized in FIG. 45 by labeling HSV-2 glycoprotein E) spread beyond the initial site of infection in the presence of AVP 893. HSV-2-infected cultures were treated with AVP 893. […] Other HSV proteins including gB, gD, and the capsid protein ICP5 were also examined with similar results (data not shown). […] Furthermore, AVP 893 didn't appear to stop the initial infection of the culture, only the subsequent spread of the virus.

[1] = column Avanir, read-out: IC50 (ng/ml), Avanir
[2] = column NCI, read-out: IC50 (ng/ml), NCI
[3] = in-house head-to-head, about 72 hours, SRB, read-out: IC50

**Q.** With O=C(Nc1ccc(-c2nc3cc(NC(=O)C4CCCCC4)ccc3[nH]2)cc1)C1CCCCC1 [AVP 893] as the compound, how does the IC50 (HCC 1806) read?
**A.** The IC50 was 4 ng/mL (≈ 9 nM).

**Q.** And the IC50 (Hs578T; [1])?
**A.** The IC50 was 2 ng/mL (≈ 4.5 nM).

**Q.** And the IC50 (Hs578T; [2])?
**A.** Its IC50 is under 10 ng/mL.

**Q.** What about the IC50 (Hs578T; [3]) of the same compound?
**A.** Its IC50 is under 1 ng/mL.

**Q.** What about the IC50 (MOLT-4; [1]) of the same compound?
**A.** The IC50 was 0.001 ng/mL (≈ 0.00225 nM).

**Q.** And the IC50 (MOLT-4; [2])?
**A.** Its IC50 is under 10 ng/mL.

**Q.** And the IC50 (MOLT-4; [3])?
**A.** The IC50 was 30 ng/mL (≈ 67.5 nM).

**Q.** And the IC50 (NCI H-460; NCI-H460, column Avanir, read-out: IC50 (ng/ml), Avanir)?
**A.** The IC50 was over 2000 ng/mL.

**Q.** What about the IC50 (NCI H-460; NCI-H460, column NCI, read-out: IC50 (ng/ml), NCI) of the same compound?
**A.** The IC50 was 400 ng/mL (≈ 900 nM).

**Q.** And the IC50 (NCI H-460; NCI-H460, in-house head-to-head, about 72 hours, SRB, read-out: IC50)?
**A.** Its IC50 is over 3000 ng/mL.

**Q.** And the IC50 (OVCAR3; OVCAR-3, column Avanir, read-out: IC50 (ng/ml), Avanir)?
**A.** The IC50 was 200 ng/mL (≈ 450 nM).

**Q.** And the IC50 (OVCAR3; OVCAR-3, column NCI, read-out: IC50 (ng/ml), NCI)?
**A.** Its IC50 is 1000 ng/mL (≈ 2250 nM).

**Q.** What about the IC50 (SW480) of the same compound?
**A.** The IC50 was 1500 ng/mL (≈ 3370 nM).

**Q.** What about the IC50 (mouse spleen cells) of the same compound?
**A.** Its IC50 is 5 nM.

**Q.** And the “spread of HSV-2 beyond the initial site of infection” value (HSV-2)?
**A.** The value was “blocked the spread of HSV-2 virus particles”.
